# According to patent publication US20260108483A1, “METHODS AND COMPOSITIONS FOR PREVENTING THE PROGRESSION OF DIABETIC RETINOPATHY AND RELATED CONDITIONS” (Opus Genetics, Inc., priority 2023, published 2026):
# Experiment: Clinical study safety: systolic blood pressure
# Format: in vivo, human
# Conditions: combined placebo + Compound 1 patients; for Mean Systolic Blood Pressure: Baseline 136.9
# Excerpt: The study was configured as a placebo-controlled, double-masked, randomized, Phase 2 study in approximately 100 subjects with moderately severe to severe NPDR (diabetic retinopathy severity score [DRSS] Level 47 or 53, see FIG. 1) or mild PDR (DRSS Level 61), evaluating safety and efficacy following administration of Compound 1 twice daily for 24 weeks. The study was configured for a 1:1 randomization (placebo: Compound 1). Randomization was stratified by level of disease severity (NPDR or PDR). Subjects with mild PDR were capped at 20% for each arm. Efficacy evaluations at 12 and/or 24 weeks included DRSS, center-involved diabetic macular edema (DME), moderate PDR or PDR-related adverse events (AEs), best-corrected visual acuity (BCVA), and central subfield thickness (CST). Further experimental procedures and results are described below.
# At the Qualification/Baseline (Visit 2, Day 1): • The subject was randomized into the study. • Study medication was dispensed in accordance with the subjects randomized treatment arm. • Blood samples were drawn pre-dose for baseline levels and on Visit 9 (Week 24) for exploratory biomarker processing (i.e., cytokine and Ref-1 levels) to evaluate pharmacodynamic properties. • Subjects were instructed to administer their study medication (Compound 1 or placebo) each day, with 3 tablets every morning and 2 tablets every evening. Study medication was to be taken at approximately the same time each day and may be taken with or without food.
# At the Second Treatment Visit (Visit 6, Week 12±2 Days), subjects were to return to the site for the following series of safety and efficacy assessments: drug accountability, concomitant medications, urine pregnancy test (only for women of childbearing potential), HR/BP/vital signs, BCVA (ETDRS), DRSS, CST (SD-OCT), blood draw for PK, blood chemistry, blood hematology, biomicroscopy, ophthalmoscopy, IOP, eGFR, and AEs. Following the completion of the assessments, used medication kits were collected for accountability (by counting the number of unused tablets), and new study medication kits dispensed.
# At the Third Treatment Visit (Visit 9, Week 24±2 Days), subjects were to return to the site for the following series of safety and efficacy assessments: drug accountability, concomitant medications, urine pregnancy test (only for women of childbearing potential), physical examination, HR/BP/vital signs, BCVA (ETDRS), DRSS, CST (SD-OCT), blood chemistry, blood hematology, biomicroscopy, ophthalmoscopy, IOP, eGFR, AEs, and blood draw for exploratory biomarkers (ELISA, cytokine panel, comprehensive metabolic panel). Visit 9 (Week 24) was the end of the treatment period. Study medication was returned for accountability (by counting the number of unused tablets), and no further study medication dispensed.
# Safety endpoints include: • Incidence and severity of systemic and ocular AEs, • Change from baseline in body system assessments, • Change from baseline in vital sign measurements, • Change from baseline in clinical laboratory assay results (blood chemistry, hematology), • Change from baseline in intraocular pressure (IOP), • Change from baseline in slit-lamp examination parameters, • Change from baseline in dilated funduscopic examination parameters, • Percent of subjects with a decrease of ≥10 letters in BCVA compared to baseline at Week 12 and Week 24, • Percent of subjects progressing to center-involved DME (eligible for rescue treatment at Week 12 and Week 24), • Percent of subjects with a worsening in DRSS of ≥2 steps in the study eye at Week 12 and Week 24, • Percent of subjects developing anterior segment neovascularization at Week 12 and Week 24, • Percent of subjects rescued (intravitreal anti-VEGF injection, laser PRP, focal/grid laser treatment, or surgery [vitrectomy]) at the discretion of the Investigator at Week 12 and Week 24, and • Change from baseline in estimated glomerular filtration rate (eGFR) at Week 12 and Week 24. […]
structure (smiles),measurement,setting,value
"CCCCCCCCC/C(=C\C1=C(C)C(=O)C(OC)=C(OC)C1=O)C(=O)O [Compound 1, (E)-2-((4,5-dimethoxy-2-methyl-3,6-dioxocyclohexa-1,4-dien-1-yl)methylene)undecanoic acid]",Mean Systolic Blood Pressure,"Week 12, 62 subjects",132 mmHg
same,Mean Systolic Blood Pressure,"Week 24, 27 subjects",139.7 mmHg
same,change in mean systolic blood pressure relative to Baseline,"week 12, 62 subjects",−4.7 mmHg
same,reduction in mean systolic blood pressure relative to Baseline,"week 12, 62 subjects",3%
same,change in mean systolic blood pressure relative to Baseline,"week 24, 27 subjects",−0.7 mmHg
same,reduction in mean systolic blood pressure relative to Baseline,"week 24, 27 subjects",1%
